# Reference: patent US20250255293A1, “TISSUE DECONTAMINATION AND PRESERVATION SYSTEM” (priority 2024, published 2025)
# Where “and” joins values, the source holds several entries; their conditions need not be identical. Identical values can stand only once.
# Experiments:
# [1] = tested on: chondrocytes of osteoarticular fracture fragments; experiment: Viable chondrocyte density / % VCD, live-dead assay (Example 5); assay type: cell-based; details: for % VCD (percentage of mean VCD of healthy day-0 samples): 20 min immersion (10% povidone-iodine or 0.002% chlorhexidine gluconate)
# Protocol: Skeletally mature purpose-bred research hounds (n=16) were humanely euthanized for purposes unrelated to the present study. Immediately following euthanasia, each dog was positioned in sternal recumbency with one forelimb extended and secured in a custom-made positioning apparatus. Fur was not clipped and no aseptic preparation or decontamination techniques were performed. Using a validated technique, a penetrating captive bolt stunner pistol (CASH Special, FRONTMATEC, Birmingham, United Kingdom) with a 1.25 grain cartridge was centered on the cranial (anterior) aspect of the distal humerus, immediately proximal to the elbow joint and with firm pressure against the secured elbow, the pistol was discharged, creating type 3 open distal humeral fractures. After the fractures were induced and radiographs obtained, the skin and soft tissues were aseptically removed. For each elbow (n=32), osteoarticular tissues were obtained from the distal humerus, proximal radius and proximal ulna such that 96 contaminated, devascularized, osteoarticular fracture fragments were randomly allocated to undergo treatment using one of the following protocols for comparison: 1)⋅Betadine (n=42): bulb irrigation using 1 L of 0.9% saline, followed by immersion in 10% povidone-iodine solution for 20 min, followed by bulb irrigation using 1 L of 0.9% saline; 2)⋅Chlorhexidine (n=42): bulb irrigation using 1 L of 0.9% saline, followed by immersion in 0.002% chlorhexidine gluconate solution immersion for 20 min, followed by bulb irrigation using 1 L of 0.9% saline; and 3)⋅Injured Control (n=12): no decontamination treatment. Each fragment was then immediately placed in 200 ml of Missouri Osteochondral Preservation System (MOPS®) solution in individual sterile closed containers, transported to the on-site laboratory and placed in a dedicated storage cabinet in standard room temperature and humidity conditions for 7 or 14 days.
# Viable Chondrocyte Density. At days 7 (n=21) or 14 (n=21) of storage, osteoarticular tissues were collected and processed for assessment of viable chondrocyte density (VCD). VCD was assessed using a live-dead assay involving calcein AM (live stain) and ethidium homodimer (dead stain). Briefly, tissues were sagittally sectioned using a Buchler Isomet low speed saw (Lake Bluff, IL, USA) to produce representative 1 mm-thick sections from each. Sections were placed in 6-well plates containing calcein AM (1 μg/ml) solution and ethidium homodimer (1 μM) in Phosphate Buffered Saline (PBS). The plates were incubated for 30 minutes at 37° C. After incubation, the stain was removed, the samples rinsed in PBS and tissues were mounted to the bottom of the plate using a 4% agarose solution. Fluorescent microscopy was used to obtain two images per section, which were analyzed to quantify tissue viability based on VCD. The VCD was determined by counting the number of viable cells in each image and dividing this by the area of the tissue in the image (#of viable cells/area of cartilage tissue mm^2). The percentage of viable chondrocyte density (% VCD) for each fracture fragment was calculated based on the mean VCD of healthy day-0 samples using the formula: (fractured VCD/control VCD)×100.
# Statistical Analysis. All data were analyzed using statistical software R Studio, version 4.3.1 (Posit Software, Boston, MA, USA). Descriptive statistics for VCD, % VCD and CFU were calculated to report means, standard deviations, ranges and percentages. […]
# [2] = tested on: bacteria (quantitative bacterial cultures); experiment: Quantitative bacterial cultures, in vivo reimplantation of decontaminated fracture fragment (Example 4); parameters: species or system canine; details: individual dogs
# Protocol: A grade 3 open femoral bicondylar fracture was created in 3 canines. A lateral parapatellar approach was used, the fragment was cultured and retrieved. The fragment was irrigated, treated with 0.002% chlorhexidine for 20 minutes, irrigated, and stored in MOPS® for 7 days, after which the fragment was reimplanted, and both condyles were repaired with 3.5 mm cannulated lag screws. After 3 months, quantitative bacterial cultures (CFU/g; Table 2) and functional outcomes (Table 3) were measured.
structure (smiles),measurement,setting,value
"[H]/N=C(\N/C(=N/[H])NCCCCCCNC(=N)NC(=N)Nc1ccc(Cl)cc1)Nc1ccc(Cl)cc1 [Chlorhexidine, chlorhexidine gluconate]",maintenance of minimum essential chondrocyte viability (in words),"[1]; 0.002% chlorhexidine immersion 20 min, shelf-stable storage in MOPS",maintaining minimum essential chondrocyte viability for up to 14 days
same,% VCD (percentage of mean VCD of healthy day-0 samples),[1]; Day 7 of MOPS storage,75.7 ± 24.2%
same,% VCD (percentage of mean VCD of healthy day-0 samples),[1]; Day 14 of MOPS storage,70.1 ± 24.1%
same,% VCD compared with other groups (in words),[1]; days 7 and 14,significantly (p<0.001) higher than for the Betadine and Injured Control groups
same,mean % VCD versus minimum essential threshold,[1]; days 7 and 14 of MOPS storage,> 70%
same,"quantitative bacterial culture, Endpoint, Fracture Fragment",[2]; 3 months after reimplantation,0 CFU/g
same,"quantitative bacterial culture, Endpoint, Synovium",[2]; 3 months after reimplantation,0 CFU/g
same,"quantitative bacterial culture, Reimplantation, MOPS Media",[2]; after 0.002% chlorhexidine 20 min and 7 days storage in MOPS,0 CFU/g
same,"quantitative bacterial culture, Initial Trauma, Fracture Fragment","[2]; baseline, before 0.002% chlorhexidine treatment",355 CFU/g and 0 CFU/g and 41 CFU/g
same,"quantitative bacterial culture, Initial Trauma, Synovium","[2]; baseline, before treatment",0 CFU/g (2×) and 119 CFU/g
